# According to patent US20090181963A1, “3H-[1,2,3]TRIAZOLO[4,5-D]PYRIMIDINE COMPOUNDS, THEIR USE AS mTOR KINASE AND PI3 KINASE INHIBITORS, AND THEIR [sequence]” (Wyeth, priority 2008, published 2009):
# Legend:
# PI3 Kinase γ = PI3 Kinase γ (Homo sapiens, UniProt P48736); test: Fluorescence polarization assay for PI3K (PI3 Kinase γ); type: biochemical; details: diC8-PI(4,5)P2 substrate, 25 μM ATP, one hour at 25° C.
# Experimental: Nunc 384 well black polypropylene fluorescent plates were used for PI3K assays. Reactions were quenched by the addition of EDTA to a final concentration of 10 μM. Final reaction volumes were 10 ml. […] Reactions were allowed to proceed for one hour at 25° C. After I hour, GST-tagged GRP1 (general receptor for phosphoinositides) PH domain fusion protein was added to a final concentration of 100 nM, and BODIPY-TMRI(1,3,4,5)P4 (Echelon) was also added to a final concentration of 5 nM. Final sample volumes were 25 μl with a final DMSO concentration of 0.8%. Assay Plates were read on PerkinElmer Envision plate readers with appropriate filters for Tamra [BODIPY-TMRI(1,3,4,5)P4]. Data obtained were used to calculate enzymatic activity and enzyme inhibition by inhibitor compounds.
# PI3 Kinase α = PI3 Kinase α (Homo sapiens, UniProt P42336); test: Fluorescence polarization assay for PI3K (PI3 Kinase α); type: biochemical; details: diC8-PI(4,5)P2 substrate, 25 μM ATP, one hour at 25° C.
# Chain of PI3 Kinase α (P42336 whole entry): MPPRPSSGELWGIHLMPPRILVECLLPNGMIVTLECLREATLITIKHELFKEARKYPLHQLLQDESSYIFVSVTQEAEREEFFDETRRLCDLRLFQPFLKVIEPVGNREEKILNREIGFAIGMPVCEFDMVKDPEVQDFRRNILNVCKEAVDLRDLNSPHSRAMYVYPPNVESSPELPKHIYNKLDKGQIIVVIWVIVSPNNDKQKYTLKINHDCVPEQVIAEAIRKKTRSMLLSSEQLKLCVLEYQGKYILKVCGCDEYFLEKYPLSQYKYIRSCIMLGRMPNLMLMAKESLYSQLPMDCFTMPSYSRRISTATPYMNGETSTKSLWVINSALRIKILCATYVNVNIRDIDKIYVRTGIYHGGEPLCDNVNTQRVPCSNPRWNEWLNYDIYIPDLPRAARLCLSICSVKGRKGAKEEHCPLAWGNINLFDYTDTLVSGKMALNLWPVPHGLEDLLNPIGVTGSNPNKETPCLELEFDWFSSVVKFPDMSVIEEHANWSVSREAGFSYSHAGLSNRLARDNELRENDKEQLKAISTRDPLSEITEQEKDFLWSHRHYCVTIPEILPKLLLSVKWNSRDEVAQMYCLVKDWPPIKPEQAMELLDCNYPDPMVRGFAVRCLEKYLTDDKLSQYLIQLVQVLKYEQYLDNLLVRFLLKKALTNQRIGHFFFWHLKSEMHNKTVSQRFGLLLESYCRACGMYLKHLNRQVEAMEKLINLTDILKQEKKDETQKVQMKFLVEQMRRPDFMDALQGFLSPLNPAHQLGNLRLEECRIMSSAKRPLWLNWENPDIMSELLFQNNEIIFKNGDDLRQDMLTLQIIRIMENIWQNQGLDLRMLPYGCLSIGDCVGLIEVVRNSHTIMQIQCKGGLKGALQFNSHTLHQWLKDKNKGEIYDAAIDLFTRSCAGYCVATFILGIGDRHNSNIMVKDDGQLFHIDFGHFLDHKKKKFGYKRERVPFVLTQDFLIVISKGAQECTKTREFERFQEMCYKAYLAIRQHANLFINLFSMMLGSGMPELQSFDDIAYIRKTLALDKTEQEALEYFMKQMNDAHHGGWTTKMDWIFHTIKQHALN
# Chain of PI3 Kinase α (P27986 whole entry partner): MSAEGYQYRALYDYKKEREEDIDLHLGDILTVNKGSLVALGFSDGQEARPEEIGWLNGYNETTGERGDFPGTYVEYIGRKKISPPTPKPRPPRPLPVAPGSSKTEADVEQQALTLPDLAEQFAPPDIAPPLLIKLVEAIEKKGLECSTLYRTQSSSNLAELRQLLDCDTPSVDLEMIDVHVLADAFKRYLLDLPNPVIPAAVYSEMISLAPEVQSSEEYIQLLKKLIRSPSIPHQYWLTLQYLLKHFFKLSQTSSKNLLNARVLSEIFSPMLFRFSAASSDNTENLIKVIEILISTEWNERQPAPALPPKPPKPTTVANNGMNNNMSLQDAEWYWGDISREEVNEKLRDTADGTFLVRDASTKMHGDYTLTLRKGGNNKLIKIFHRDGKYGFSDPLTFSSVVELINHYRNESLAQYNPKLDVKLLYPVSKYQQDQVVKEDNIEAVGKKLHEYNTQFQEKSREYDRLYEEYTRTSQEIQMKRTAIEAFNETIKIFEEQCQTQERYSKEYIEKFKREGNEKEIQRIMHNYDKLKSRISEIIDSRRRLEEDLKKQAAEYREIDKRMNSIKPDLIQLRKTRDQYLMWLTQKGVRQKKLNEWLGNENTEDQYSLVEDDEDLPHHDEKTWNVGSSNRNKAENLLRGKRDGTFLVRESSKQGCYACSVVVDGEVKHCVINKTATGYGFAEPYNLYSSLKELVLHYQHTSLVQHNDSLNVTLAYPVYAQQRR
# Chain of PI3 Kinase γ (P48736 whole entry): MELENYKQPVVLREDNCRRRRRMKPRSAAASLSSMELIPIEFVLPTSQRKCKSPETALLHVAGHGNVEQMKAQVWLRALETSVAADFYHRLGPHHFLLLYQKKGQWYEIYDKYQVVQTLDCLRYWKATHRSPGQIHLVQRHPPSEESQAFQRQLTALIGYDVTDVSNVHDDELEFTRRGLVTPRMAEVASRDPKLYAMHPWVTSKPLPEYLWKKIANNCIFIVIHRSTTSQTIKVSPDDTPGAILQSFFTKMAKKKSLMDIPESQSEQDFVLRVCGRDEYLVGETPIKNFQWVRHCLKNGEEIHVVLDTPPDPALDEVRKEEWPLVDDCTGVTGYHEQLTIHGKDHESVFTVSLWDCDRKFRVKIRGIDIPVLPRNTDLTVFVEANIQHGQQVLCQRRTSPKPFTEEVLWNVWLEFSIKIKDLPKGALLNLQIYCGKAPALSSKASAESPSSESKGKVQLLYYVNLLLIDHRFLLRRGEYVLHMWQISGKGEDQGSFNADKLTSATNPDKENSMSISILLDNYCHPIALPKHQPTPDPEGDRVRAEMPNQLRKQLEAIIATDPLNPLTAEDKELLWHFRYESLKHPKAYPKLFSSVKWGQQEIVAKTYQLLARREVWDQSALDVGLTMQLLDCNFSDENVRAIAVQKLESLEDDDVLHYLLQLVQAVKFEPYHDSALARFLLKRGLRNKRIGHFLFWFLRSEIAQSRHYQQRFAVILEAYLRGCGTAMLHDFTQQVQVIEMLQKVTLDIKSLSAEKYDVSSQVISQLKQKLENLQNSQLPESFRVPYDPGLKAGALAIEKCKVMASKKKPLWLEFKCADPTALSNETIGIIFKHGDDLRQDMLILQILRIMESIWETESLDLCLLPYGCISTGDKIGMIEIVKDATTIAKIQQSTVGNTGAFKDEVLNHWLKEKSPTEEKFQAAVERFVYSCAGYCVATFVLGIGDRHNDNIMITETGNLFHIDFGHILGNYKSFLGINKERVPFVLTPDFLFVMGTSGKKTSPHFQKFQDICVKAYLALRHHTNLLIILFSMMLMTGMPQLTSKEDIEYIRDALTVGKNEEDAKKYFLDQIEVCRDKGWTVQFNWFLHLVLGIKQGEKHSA
SMILES,IC50 (PI3 Kinase γ),IC50 (PI3 Kinase α)
"Oc1cccc(-c2nc(N3CCOCC3)c3nnn(C4CN(Cc5ccc(F)nc5)C4)c3n2)c1 [Example 128, 3-(3-{1-[(6-fluoropyridin-3-yl)methyl]azetidin-3-yl}-7-morpholin-4-yl-3H-[1,2,3]triazolo[4,5-d]pyrimidin-5-yl)phenol]",1100 nM,164 nM
"CN(C)CCNC(=O)Nc1ccc(-c2nc(N3CCOCC3)c3nnn(C4CCN(Cc5ccc(-c6ccncc6)cc5)CC4)c3n2)cc1 [Example 160, 1-(2-(dimethylamino)ethyl)-3-(4-(7-morpholino-3-(1-(4-(pyridin-4-yl)benzyl)piperidin-4-yl)-3H-[1,2,3]triazolo[4,5-d]pyrimidin-5-yl)phenyl)urea]",108 nM,13 nM
"CCn1nnc2c(N3CCOC[C@@H]3C)nc(-c3ccc(NC(=O)Nc4ccc(OC)cc4)cc3)nc21 [Example 73, (S)-1-(4-(3-ethyl-7-(3-methylmorpholino)-3H-[1,2,3]triazolo[4,5-d]pyrimidin-5-yl)phenyl)-3-(4-methoxyphenyl)urea]",92.5 nM,15.5 nM
"Cc1ccc(NC(=O)Nc2ccc(-c3nc(N4CCOCC4)c4nnn(C(C)C)c4n3)cc2)cc1 [Example 90, 1-(4-methyl-phenyl)-3-[4-(3-isopropyl-7-morpholin-4-yl-3H-[1,2,3]triazolo[4,5-d]pyrimidin-5-yl)-phenyl]-urea]",100 nM,34.5 nM
"O=C(NCC(O)c1ccccc1)c1ccc(Cn2nnc3c(N4CCOCC4)nc(-c4cccc(O)c4)nc32)cc1 (stereo not drawn) [Example 226, N-(2-hydroxy-2-phenylethyl)-4-{[5-(3-hydroxyphenyl)-7-morpholin-4-yl-3H-[1,2,3]triazolo[4,5-d]pyrimidin-3-yl]methyl}benzamide]",958 nM,126 nM
"CN(C)CCNC(=O)Nc1ccc(-c2nc(N3CCOCC3)c3nnn(C4CCN(Cc5cccnc5)CC4)c3n2)cc1 [Example 154, 1-(2-(dimethylamino)ethyl)-3-(4-(7-morpholino-3-(1-(pyridin-3-ylmethyl)piperidin-4-yl)-3H-[1,2,3]triazolo[4,5-d]pyrimidin-5-yl)phenyl)urea]",58 nM,206 nM
"Oc1cncc(-c2nc(N3CCOCC3)c3nnn(C4CCN(Cc5ccc(-c6ccncc6)cc5)CC4)c3n2)c1 [Example 31, 5-{7-morpholin-4-yl-3-[1-(4-pyridin-4-ylbenzyl)piperidin-4-yl]-3H-[1,2,3]triazolo[4,5-d]pyrimidin-5-yl}pyridin-3-ol]",2280 nM,298 nM
"CCn1nnc2c(N3CCOCC3)nc(-c3ccc(NC(=O)Nc4ccncc4)cc3)nc21 [Example 33, 1-[4-(3-ethyl-7-morpholin-4-yl-3H-[1,2,3]triazolo[4,5-d]pyrimidin-5-yl)phenyl]-3-pyridin-4-ylurea]",19 nM,3 nM
"Oc1cncc(-c2nc(N3CCOCC3)c3nnn(C4CCN(Cc5ccc(Br)nc5)CC4)c3n2)c1 [Example 15, 5-(3-{1-[(6-bromopyridin-3-yl)methyl]piperidin-4-yl}-7-morpholin-4-yl-3H-[1,2,3]triazolo[4,5-d]pyrimidin-5-yl)pyridin-3-ol]",106 nM,16 nM
"CC(C)n1nnc2c(N3CCOCC3)nc(-c3ccc(NC(=O)Nc4cc[nH]c4)cc3)nc21 [Example 95, 1-[4-(3-isopropyl-7-morpholin-4-yl-3H-[1,2,3]triazolo[4,5-d]pyrimidin-5-yl)-phenyl]-3-(1H-pyrrol-3-yl)-urea]",91 nM,33.7 nM
"CNC(=O)Nc1ccc(-c2nc(N3CCOCC3)c3nnn(C4CCN(Cc5ccccc5)CC4)c3n2)cc1 [Example 6, 1-{4-[3-(1-benzylpiperidin-4-yl)-7-morpholin-4-yl-3H-[1,2,3]triazolo[4,5-d]pyrimidin-5-yl]phenyl}-3-methylurea]",620 nM,100 nM

# Further compounds by falling IC50 (PI3 Kinase γ), results first:
IC50 (PI3 Kinase γ),IC50 (PI3 Kinase α),SMILES
982 nM,255 nM,"Oc1cccc(-c2nc(N3CCOCC3)c3nnn(CCN4CCN(Cc5ccccc5)CC4)c3n2)c1 [Example 114, 3-{3-[2-(4-benzylpiperazin-1-yl)ethyl]-7-morpholin-4-yl-3H-[1,2,3]triazolo[4,5-d]pyrimidin-5-yl}phenol]"
240 nM,240 nM,"O=C(Nc1ccc(F)cc1)c1ccc(Cn2nnc3c(N4CCOCC4)nc(-c4cccc(O)c4)nc32)cc1 [Example 217, N-(4-fluorophenyl)-4-{[5-(3-hydroxyphenyl)-7-morpholin-4-yl-3H-[1,2,3]triazolo[4,5-d]pyrimidin-3-yl]methyl}benzamide]"
220 nM,66 nM,"O=C(Nc1ccc(Cn2nnc3c(N4CCOCC4)nc(-c4cccc(O)c4)nc32)cc1)c1ccc(Cl)cc1 [Example 197, 4-Chloro-N-(4-{[5-(3-hydroxyphenyl)-7-morpholin-4-yl-3H-[1,2,3]triazolo[4,5-d]pyrimidin-3-yl]methyl}phenyl)benzamide]"
168 nM,80 nM,"Oc1cncc(-c2nc(N3CCOCC3)c3nnn(C4CCNCC4)c3n2)c1 [Example 12, 5-(7-morpholin-4-yl-3-piperidin-4-yl-3H-[1,2,3]triazolo[4,5-d]pyrimidin-5-yl)pyridin-3-ol]"
165 nM,34 nM,"CC(C)(C)OC(=O)N1CC(n2nnc3c(N4CCOCC4)nc(-c4ccc(NC(=O)Nc5cccnc5)cc4)nc32)C1 [Example 130, tert-butyl 3-(7-morpholin-4-yl-5-{4-[(pyridin-3-ylcarbamoyl)amino]phenyl}-3H-[1,2,3]triazolo[4,5-d]pyrimidin-3-yl)azetidine-1-carboxylate]"
97.5 nM,8.5 nM,"CCn1nnc2c(N3CCOC[C@@H]3C)nc(-c3ccc(NC(=O)Nc4cccs4)cc3)nc21 [Example 69, (S)-1-(4-(3-ethyl-7-(3-methylmorpholino)-3H-[1,2,3]triazolo[4,5-d]pyrimidin-5-yl)phenyl)-3-(thiophen-2-yl)urea]"
97 nM,9.5 nM,"CCn1nnc2c(N3CCOC[C@@H]3C)nc(-c3ccc(NC(=O)Nc4ccc(F)cc4)cc3)nc21 [Example 74, (S)-1-(4-(3-ethyl-7-(3-methylmorpholino)-3H-[1,2,3]triazolo[4,5-d]pyrimidin-5-yl)phenyl)-3-(4-fluorophenyl)urea]"
34.5 nM,3 nM,"CC(C)n1nnc2c(N3CCOCC3)nc(-c3ccc(NC(=O)Nc4ccc(CO)cc4)cc3)nc21 [Example 84, 1-(4-Hydroxymethyl-phenyl)-3-[4-(3-isopropyl-7-morpholin-4-yl-3H-[1,2,3]triazolo[4,5-d]pyrimidin-5-yl)-phenyl]-urea]"
31 nM,3.6 nM,"CCn1nnc2c(N3CCOCC3)nc(-c3ccc(NC(=O)Nc4ccc(C(=O)NCc5ccncc5)cc4)cc3)nc21 [Example 51, 4-({[4-(3-ethyl-7-morpholin-4-yl-3H-[1,2,3]triazolo[4,5-d]pyrimidin-5-yl)phenyl]carbamoyl}amino)-N-(pyridin-4-ylmethyl)benzamide]"
30 nM,4.5 nM,"CCn1nnc2c(N3CCOCC3)nc(-c3ccc(NC(=O)Nc4ccc(C(=O)NCCc5ccccn5)cc4)cc3)nc21 [Example 63, 4-({[4-(3-ethyl-7-morpholin-4-yl-3H-[1,2,3]triazolo[4,5-d]pyrimidin-5-yl)phenyl]carbamoyl}amino)-N-(2-pyridin-2-ylethyl)benzamide]"
